Each compound was assayed against c-KIT (Homo sapiens, UniProt P10721) (assay: c-KIT ADP-Glo biochemical assay). Details: class ranges.
Sequence of c-KIT (P10721 26-976): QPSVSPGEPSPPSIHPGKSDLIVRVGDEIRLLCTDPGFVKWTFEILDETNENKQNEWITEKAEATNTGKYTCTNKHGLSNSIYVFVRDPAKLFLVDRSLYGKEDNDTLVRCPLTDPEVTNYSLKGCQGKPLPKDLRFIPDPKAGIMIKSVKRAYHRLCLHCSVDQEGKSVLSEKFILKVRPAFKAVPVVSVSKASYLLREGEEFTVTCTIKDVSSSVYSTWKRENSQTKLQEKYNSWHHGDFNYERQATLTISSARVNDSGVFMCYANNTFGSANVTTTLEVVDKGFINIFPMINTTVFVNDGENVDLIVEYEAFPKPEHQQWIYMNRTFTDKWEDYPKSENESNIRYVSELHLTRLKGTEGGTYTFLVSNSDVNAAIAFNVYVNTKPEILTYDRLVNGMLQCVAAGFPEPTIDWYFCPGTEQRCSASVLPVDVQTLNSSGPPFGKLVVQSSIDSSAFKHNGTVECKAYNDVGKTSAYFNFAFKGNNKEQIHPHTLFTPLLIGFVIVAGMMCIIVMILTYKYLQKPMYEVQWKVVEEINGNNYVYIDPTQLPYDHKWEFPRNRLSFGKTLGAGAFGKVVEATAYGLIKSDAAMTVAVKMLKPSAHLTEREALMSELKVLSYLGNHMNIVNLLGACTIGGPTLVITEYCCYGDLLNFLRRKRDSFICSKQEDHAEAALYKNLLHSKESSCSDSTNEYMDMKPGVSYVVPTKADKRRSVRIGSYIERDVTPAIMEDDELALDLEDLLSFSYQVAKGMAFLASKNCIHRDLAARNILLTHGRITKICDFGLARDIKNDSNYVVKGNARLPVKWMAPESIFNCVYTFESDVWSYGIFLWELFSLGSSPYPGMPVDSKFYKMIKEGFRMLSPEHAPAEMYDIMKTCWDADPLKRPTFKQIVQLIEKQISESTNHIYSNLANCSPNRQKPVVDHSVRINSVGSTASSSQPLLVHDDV
Description: The inhibitory activity against c-KIT was measured using ADP-Glo assay. The percent (%) inhibition at each concentration of compound is calculated based on and relative to the luminescence signal in the Max and Min control wells contained within each assay plate. The Max control wells contain enzyme and substrate as 0% inhibition, and the Min control wells only contain substrate without enzyme as 100% inhibition. The concentrations and % inhibition values for tested compounds are plotted and the concentration of compound required for 50% inhibition (IC50) is determined with a four-parameter logistic dose response equation. The ability of the compounds in Table 1 to inhibit c-KIT was determined.
`COC(=O)N1CC(c2nc(-c3cc(F)c(C)c(NC(=O)c4cnc5cc(N6CCNCC6)ccn45)c3)no2)C1` [Compound C030, methyl 3-(3-(3-fluoro-4-methyl-5-(7-(piperazin-1-yl)imidazo[1,2-a]pyridine-3-carboxamido)phenyl)-1,2,4-oxadiazol-5-yl)azetidine-1-carboxylate] was tested, and the IC50 was 100 to 1000 nM.
With `CNC(=O)N1CC(c2nc(-c3cc(F)c(C)c(NC(=O)c4cnc5ccccn45)c3)no2)C1` [Compound C032, N-(3-fluoro-2-methyl-5-(5-(1-(methylcarbamoyl)azetidin-3-yl)-1,2,4-oxadiazol-3-yl)phenyl)imidazo[1,2-a]pyridine-3-carboxamide] the IC50 was 1000 to 20000 nM.
`Cc1c(F)cc(-c2noc([C@H]3C[C@@H]3F)n2)cc1NC(=O)c1cnc2ccc(N3CCN(C)CC3)cn12` (racemic) [Compound C034, N-(3-fluoro-5-(5-((1R,2S)-2-fluorocyclopropyl)-1,2,4-oxadiazol-3-yl)-2-methylphenyl)-6-(4-methylpiperazin-1-yl)imidazo[1,2-a]pyridine-3-carboxamide] showed an IC50 of 100 to 1000 nM.
`Cc1c(F)cc(-c2noc([C@H]3C[C@@H]3F)n2)cc1NC(=O)c1cnc2cc(N3CCOCC3)ccn12` [Compound C014, N-(3-fluoro-5-(5-((1R,2S)-2-fluorocyclopropyl)-1,2,4-oxadiazol-3-yl)-2-methylphenyl)-7-morpholinoimidazo[1,2-a]pyridine-3-carboxamide] gave an IC50 of 100 to 1000 nM.
`COC(=O)N1CC(c2nc(-c3cc(F)c(C)c(NC(=O)c4cnc5ccc(C)cn45)c3)no2)C1` [Compound C021, methyl 3-(3-(3-fluoro-4-methyl-5-(6-methylimidazo[1,2-a]pyridine-3-carboxamido)phenyl)-1,2,4-oxadiazol-5-yl)azetidine-1-carboxylate] was tested, and the IC50 was 100 to 1000 nM.
For `CC(=O)N1CCN(c2ccc3ncc(C(=O)Nc4cc(-c5noc(C6CC(F)(F)C6)n5)cc(F)c4C)n3c2)CC1` [Compound C038, 6-(4-acetylpiperazin-1-yl)-N-(5-(5-(3,3-difluorocyclobutyl)-1,2,4-oxadiazol-3-yl)-3-fluoro-2-methylphenyl)imidazo[1,2-a]pyridine-3-carboxamide], the IC50 was ≤ 100 nM.
Work on `COC(=O)N1CC(c2nc(-c3cc(F)c(C)c(NC(=O)c4cnc5cc(F)ccn45)c3)no2)C1` [Compound C024, methyl 3-(3-(3-fluoro-5-(7-fluoroimidazo[1,2-a]pyridine-3-carboxamido)-4-methylphenyl)-1,2,4-oxadiazol-5-yl)azetidine-1-carboxylate] yielded an IC50 of 100 to 1000 nM.
`COC(=O)N1CC(c2nc(-c3cc(F)c(C)c(NC(=O)c4cnc5ccc(C(N)=O)cn45)c3)no2)C1` [Compound C040, methyl 3-(3-(3-(6-carbamoylimidazo[1,2-a]pyridine-3-carboxamido)-5-fluoro-4-methylphenyl)-1,2,4-oxadiazol-5-yl)azetidine-1-carboxylate] was tested, and the IC50 was ≤ 100 nM.
For `Cc1c(F)cc(-c2noc([C@H]3C[C@@H]3F)n2)cc1NC(=O)c1cnc2ccc(N3CCNCC3)cn12` (racemic) [Compound C026, N-(3-fluoro-5-(5-((1R,2S)-2-fluorocyclopropyl)-1,2,4-oxadiazol-3-yl)-2-methylphenyl)-6-(piperazin-1-yl)imidazo[1,2-a]pyridine-3-carboxamide], the IC50 was 100 to 1000 nM.
`COC(=O)N1CCC[C@H](c2nc(-c3cc(F)c(C)c(NC(=O)c4cnc5ccccn45)c3F)no2)C1` [Compound C056, methyl (S)-3-(3-(2,5-difluoro-3-(imidazo[1,2-a]pyridine-3-carboxamido)-4-methylphenyl)-1,2,4-oxadiazol-5-yl)piperidine-1-carboxylate] showed an IC50 of 100 to 1000 nM.
For `Cc1c(F)cc(-c2noc([C@H]3C[C@H]3F)n2)cc1NC(=O)c1cnn2ccccc12` (racemic) [Compound C005], the IC50 was 100 to 1000 nM.
In the case of `Cc1c(F)cc(-c2noc(C3CC(F)(F)C3)n2)cc1NC(=O)c1cnc2ccccn12` [Compound C001, N-(5-(5-(3,3-difluorocyclobutyl)-1,2,4-oxadiazol-3-yl)-3-fluoro-2-methylphenyl)imidazo[1,2-a]pyridine-3-carboxamide], the IC50 is reported as 1000 to 20000 nM.
`COC(=O)N1CC(c2nnc(-c3cc(F)c(C)c(NC(=O)c4cnc5ccccn45)c3)o2)C1` [Compound C044, methyl 3-(5-(3-fluoro-5-(imidazo[1,2-a]pyridine-3-carboxamido)-4-methylphenyl)-1,3,4-oxadiazol-2-yl)azetidine-1-carboxylate] was tested, and the IC50 was 1000 to 20000 nM.
With `COC(=O)N1CC(c2nc(-c3cc(F)c(C)c(NC(=O)c4cnc5ccc(F)cn45)c3)no2)C1` [Compound C019, methyl 3-(3-(3-fluoro-5-(6-fluoroimidazo[1,2-a]pyridine-3-carboxamido)-4-methylphenyl)-1,2,4-oxadiazol-5-yl)azetidine-1-carboxylate] the IC50 was 100 to 1000 nM.
In the case of `COC(=O)N1CC(c2nc(-c3cc(F)c(C)c(NC(=O)c4cnc5cc(N6CCOCC6)ccn45)c3)no2)C1` [Compound C015, methyl 3-(3-(3-fluoro-4-methyl-5-(7-morpholinoimidazo[1,2-a]pyridine-3-carboxamido)phenyl)-1,2,4-oxadiazol-5-yl)azetidine-1-carboxylate], the IC50 is reported as ≤ 100 nM.
For `Cc1c(F)cc(-c2noc([C@@H]3C[C@H]3F)n2)cc1NC(=O)c1cnc2cc(N3CCOCC3)ccn12` [Compound C050, N-(3-fluoro-5-(5-((1S,2R)-2-fluorocyclopropyl)-1,2,4-oxadiazol-3-yl)-2-methylphenyl)-7-morpholinoimidazo[1,2-a]pyridine-3-carboxamide], the IC50 was 100 to 1000 nM.
With `Cc1c(F)cc(-c2noc(C3CC(F)(F)C3)n2)cc1NC(=O)c1cnc2cc(N3CCN(C)CC3)ccn12` [Compound C011, N-(5-(5-(3,3-difluorocyclobutyl)-1,2,4-oxadiazol-3-yl)-3-fluoro-2-methylphenyl)-7-(4-methylpiperazin-1-yl)imidazo[1,2-a]pyridine-3-carboxamide] the IC50 was 100 to 1000 nM.
For `COC(=O)N1CC(c2coc(-c3cc(F)c(C)c(NC(=O)c4cnc5ccccn45)c3)n2)C1` [Compound C047, methyl 3-(2-(3-fluoro-5-(imidazo[1,2-a]pyridine-3-carboxamido)-4-methylphenyl)oxazol-4-yl)azetidine-1-carboxylate], the IC50 was 100 to 1000 nM.
`COC(=O)N1CC(c2nc(-c3cc(F)c(C)c(NC(=O)c4cnc5cc(C)ccn45)c3)no2)C1` [Compound C017, methyl 3-(3-(3-fluoro-4-methyl-5-(7-methylimidazo[1,2-a]pyridine-3-carboxamido)phenyl)-1,2,4-oxadiazol-5-yl)azetidine-1-carboxylate] showed an IC50 of 100 to 1000 nM.
For `COCCOC(=O)N1CC(c2nc(-c3cc(F)c(C)c(NC(=O)c4cnc5ccccn45)c3)no2)C1` [Compound C042, 2-methoxyethyl 3-(3-(3-fluoro-5-(imidazo[1,2-a]pyridine-3-carboxamido)-4-methylphenyl)-1,2,4-oxadiazol-5-yl)azetidine-1-carboxylate], the IC50 was 100 to 1000 nM.
Work on `COC(=O)N1CC[C@@H](c2nc(-c3cc(F)c(C)c(NC(=O)c4cnc5ccccn45)c3F)no2)C1` [Compound C053, methyl (R)-3-(3-(2,5-difluoro-3-(imidazo[1,2-a]pyridine-3-carboxamido)-4-methylphenyl)-1,2,4-oxadiazol-5-yl)pyrrolidine-1-carboxylate] yielded an IC50 of 1000 to 20000 nM.
Work on `COC(=O)N1CC(c2nc(-c3cc(F)c(C)c(NC(=O)c4cnc5cc(Cl)ccn45)c3)no2)C1` [Compound C016, methyl 3-(3-(3-(7-chloroimidazo[1,2-a]pyridine-3-carboxamido)-5-fluoro-4-methylphenyl)-1,2,4-oxadiazol-5-yl)azetidine-1-carboxylate] yielded an IC50 of 100 to 1000 nM.
In the case of `COC(=O)N1CCC[C@@H](c2nc(-c3cc(F)c(C)c(NC(=O)c4cnc5ccccn45)c3F)no2)C1` [Compound C054, methyl (R)-3-(3-(2,5-difluoro-3-(imidazo[1,2-a]pyridine-3-carboxamido)-4-methylphenyl)-1,2,4-oxadiazol-5-yl)piperidine-1-carboxylate], the IC50 is reported as 100 to 1000 nM.
`CC(=O)N1CCN(c2ccc3ncc(C(=O)Nc4cc(-c5noc([C@H]6C[C@@H]6F)n5)cc(F)c4C)n3c2)CC1` (racemic) [Compound C039, 6-(4-acetylpiperazin-1-yl)-N-(3-fluoro-5-(5-((1R,2S)-2-fluorocyclopropyl)-1,2,4-oxadiazol-3-yl)-2-methylphenyl)imidazo[1,2-a]pyridine-3-carboxamide] was tested, and the IC50 was ≤ 100 nM.
`COC(=O)N1CC(c2nc(-c3cc(F)c(C)c(NC(=O)c4cnn5ccccc45)c3)no2)C1` [Compound C006, methyl 3-(3-(3-fluoro-4-methyl-5-(pyrazolo[1,5-a]pyridine-3-carboxamido)phenyl)-1,2,4-oxadiazol-5-yl)azetidine-1-carboxylate] gave an IC50 of 100 to 1000 nM.
In the case of `COC(=O)N1CC(c2nc(-c3cc(F)c(C)c(NC(=O)c4cnc5cc(OC)ccn45)c3)no2)C1` [Compound C029, methyl 3-(3-(3-fluoro-5-(7-methoxyimidazo[1,2-a]pyridine-3-carboxamido)-4-methylphenyl)-1,2,4-oxadiazol-5-yl)azetidine-1-carboxylate], the IC50 is reported as ≤ 100 nM.
`Cc1c(F)cc(-c2noc([C@H]3C[C@@H]3F)n2)cc1NC(=O)c1cnc2ccc(N3CCOCC3)cn12` (racemic) [Compound C008, N-(3-fluoro-5-(5-((1R,2S)-2-fluorocyclopropyl)-1,2,4-oxadiazol-3-yl)-2-methylphenyl)-6-morpholinoimidazo[1,2-a]pyridine-3-carboxamide] gave an IC50 of 1000 to 20000 nM.
In the case of `COC(=O)N1CC[C@H](c2nc(-c3cc(F)c(C)c(NC(=O)c4cnc5ccccn45)c3F)no2)C1` [Compound C055, methyl (S)-3-(3-(2,5-difluoro-3-(imidazo[1,2-a]pyridine-3-carboxamido)-4-methylphenyl)-1,2,4-oxadiazol-5-yl)pyrrolidine-1-carboxylate], the IC50 is reported as 100 to 1000 nM.

From patent US20250313556A1, “CERTAIN CHEMICAL ENTITIES, COMPOSITIONS, AND METHODS” (MRJA THERAPEUTICS, INC., priority 2022, published 2025)
